GI50 and TGI data for 1 compound are collected here from PubChem BioAssay (NCI).

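Dose response: 5 concentrations. Exposure: 48 h. Format: 96-well plates. Endpoint: linear interpolation; highest concentration if not reached. GI50: concentration for 50% inhibition of growth. TGI is the concentration that stops growth completely.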

Some test systems named below: ACHN renal; SR leukemia; HOP-92 NSCLC; COLO 205 colon; EKVX NSCLC; SNB-75 CNS; LOX IMVI melanoma; HT29 colon; A549 NSCLC; MALME-3M melanoma.
Holding throughout (assay): growth of human tumour cells (NCI), 48 h

As for `COc1ccc(C(=O)c2cc(OC)c(OC)c(OC)c2)cc1O`, the GI50 is 43.3 nM with ACHN renal; < 10 nM with SR leukemia; 539 nM in the experiment on HOP-92 NSCLC; 1360 nM in the experiment on COLO 205 colon; 791 nM in the experiment with EKVX NSCLC; < 10 nM in the experiment with SNB-75 CNS. The GI50 with LOX IMVI melanoma was 11.4 nM; in the experiment with HT29 colon it was 1960 nM; with A549 NSCLC, 71.7 nM; in the experiment with MALME-3M melanoma, > 100000 nM. Further, the TGI was > 100000 nM with ACHN renal; > 100000 nM in the experiment with SR leukemia; > 100000 nM in the experiment with HOP-92 NSCLC; 13300 nM in the experiment with COLO 205 colon; > 100000 nM in the experiment on EKVX NSCLC; > 100000 nM in the experiment with SNB-75 CNS. Moreover, the TGI with LOX IMVI melanoma is > 100000 nM; with HT29 colon, > 49500 nM; in the experiment with A549 NSCLC, > 100000 nM; in the experiment on MALME-3M melanoma, > 100000 nM.
